Converted amounts (≈) assume the structure as drawn. Blank lines part the entries; values can stand above or below the compound they belong to.
Experiments:
Assay type in all cases: physicochemical
[1] = Thermogravimetry coupled with FT-IR (TG-FTIR), decomposition
Description: TG-FTIR: Thermogravimetric measurements were carried out with a Netzsch Thermo-Microbalance TG 209 coupled to a Bruker FTIR Spectrometer Vector 22 (sample pans with a pinhole, N2 atmosphere, heating rate 10 K/min).

[2] = Aqueous solubility; settings: water, thermodynamic from solid; for solubility at 24 h: equilibration time 24 hours
[3] = pH dependent solubility tests in 0.1 M HCl, citrate buffer and USP phosphate buffers; settings: thermodynamic from solid
Description: pH dependent solubility tests were conducted in 0.1 M HCl, in citrate buffer, and in USP phosphate buffers with nominal pH values of 6.8 and 7.4. Solubility tests at pH values below 5 failed because all compounds dissolved during the equilibration phase.

[4] = Dynamic vapor sorption (DVS), with PXRD and TG-FTIR of the post-DVS sample; settings: for Solid form of the sample recovered post-DVS (PXRD): PXRD after DVS; for Water content of the post-DVS sample by TG-FTIR: sample recovered at end of DVS test; for Total water content change during the DVS cycles: wet sample used
Description: Dynamic vapor sorption: DVS measurements were performed with an SPS11-100n “Sorptions Prifsystem” from ProUmid (formerly “Projekt Messtechnik”), August-Nagel-Str. 23, 89079 Ulm (Germany). About 5-20 mg of sample was put into an aluminum sample pan. Humidity change rates of 5% per hour were used. The applied measurement program is visualized in the figure (blue trace). The presentations showing the effective water content are corrected.
The sample was placed on an aluminum or platinum holder on top of a microbalance and allowed to equilibrate at 50% RH before starting the pre-defined humidity programs. The measurement program is visualized in the figures of the report.
Classification of Hygroscopicity: The hygroscopicity was classified based on the mass gain at 85% RH relative to the initial mass as follows: deliquescent (sufficient water adsorbed to form a liquid), very hygroscopic (mass increase of ≥15%), hygroscopic (mass increase <15% but ≥2%), slightly hygroscopic (mass increase <2% but ≥0.2%), or non-hygroscopic (mass increase <0.2%).

[5] = Approximate solubility by incremental addition of solvent; settings: for solubility: thermodynamic from solid
Description: Solubility: Approximate solubilities were determined by incremental addition of solvent to about 10 mg the compound. If the substance was not dissolved by addition of a total of at least 10 ml solvent, the solubility is indicated as <1 mg/ml. Due to the experimental error inherent in this method, the solubility values are intended to be regarded as rough estimates and are to be used solely for the design of crystallization experiments.
Approximate solubilities were determined for amorphous Compound (I) at room temperature. These values were obtained by addition of small aliquots of solvent to small amounts of solid to achieve dissolution by stirring or agitation for a short period of time. […] Ratios for solvent mixtures correspond to volume ratios.
Initially the tests were carried out with the amorphous form Compound (I) and later on, after stable crystalline Form D (Example 7 below) was discovered, some of the tests were repeated with the crystalline form. […] Antisolvents are water, heptane, and TBME. […] Based on available data and further experiments diisopropylether, cyclohexane and methylcyclohexane can also be used as antisolvents.

[6] = Physical form stability on drying (PXRD)
Description: PowderX-ray diffraction: Powder X-ray diffraction was carried out with a Stoe Stadi P diffractometer equipped with a Mythen1K detector operating with Cu—Kα1 radiation. The measurements with this instrument were performed in transmission at a tube voltage of 40 kV and 40 mA tube power. A curved Ge monochromator allows testing with Cu—Kα1 radiation. The following parameters were set: 0.02° 20 step size, 12 s step time, 1.5-50.5° 20 scanning range, and 1° 20 detector step (detector mode in step scan). For a typical sample preparation about 10 mg of sample was placed between two acetate foils and mounted into a Stoe transmission sample holder. The sample was rotated during the measurement. All sample preparation and measurement was done in an ambient air atmosphere.
The first crystalline form of Compound (I) was designated as Form A and was obtained from a suspension equilibration experiment of the amorphous form in an isopropanol—water mixture. Form A was characterized by PXRD, TG-FTIR, H-NMR and DVS.
The PXRD pattern of Form A is depicted in FIG. 1. It should be noted that this sample was examined by PXRD before drying and that the undried sample is highly crystalline in nature. […] A TG-FTIR of the crystal Form A sample without much drying indicated a large mass loss of 36.6% that is attributable to water and isopropanol. Given the large mass loss it was concluded that drying was insufficient, and therefore the sample was further dried under vacuum at ambient temperature for about 23 hours and a new TG-FTIR was recorded.
As with Form A, Form B was examined by PXRD before drying was indicated to be highly crystalline in nature. […] A TG-FTIR was carried out for Form B without further drying and the thermogram indicated a large mass loss of 36.5% that is attributable to water; however no alcohol was detected. Given the large mass loss it was concluded that drying was insufficient, and the sample was subjected to further vacuum drying at ambient temperature for ten minutes and a new TG-FTIR was recorded. The new TG-FTIR thermogram indicated a water content of about 4.6%.

[7] = Solubility tests in potential process solvent mixtures; settings: thermodynamic from solid

SMILES: CN1CCN(C[C@H]2COc3cc4ncnc(Nc5cccc(Br)c5F)c4cc3O2)CC1 [Amorphous form, (S)—N-(3-bromo-2-fluorophenyl)-7-((4-methylpiperazin-1-yl)methyl)-7,8-dihydro-[1,4]dioxino[2,3-g]quinazolin-4-amine]
Decomposition temperature [1]: above 200 °C
solubility at 24 h ([2]; pH 9.27): 49 µg/mL (≈ 0.1 mM)
solubility at 1 h ([2]; equilibration time one hour, pH 9.16): 46 µg/mL (≈ 0.0942 mM)
solubility ([3]; USP phosphate buffer (nominal pH 6.8), aqueous buffer, effective pH 6.95): 316 µg/mL (≈ 0.647 mM)
solubility ([3]; USP phosphate buffer (nominal pH 7.4), pH 7.5, aqueous buffer, effective pH 7.50): 94 µg/mL (≈ 0.192 mM)
solubility ([3]; citrate buffer, aqueous buffer, effective pH 6.25): 9630 µg/mL (≈ 19.7 mM)
Hygroscopicity classification ([4]; DVS, classes based on mass gain at 85% RH relative to initial mass): hygroscopic (hygroscopic (mass increase <15% but ≥2%))
Solid form of the sample recovered post-DVS (PXRD) [4]: has not changed
Water lost during DVS ([4]; approximately same amount as during TG-FTIR): roughly 1.5%
Water content at the end of the DVS test [4]: about 6.4%
Water content at the high r.h. end during the DVS cycles ([4]; high r.h. end): about 15%
solubility ([5]; 2-propanol, organic solvent or mixture, Propanol, 2-, room temperature): > 100000 µg/mL
Approximate solubility ([5]; Acetonitrile, room temperature): S > 130 mg/ml
Approximate solubility ([5]; Ethanol/n-heptane (1/3), room temperature): S > 130 mg/ml
Approximate solubility ([5]; Isopropyl acetate, room temperature): S~100 mg/ml
solubility ([5]; MEK, organic solvent or mixture, room temperature): > 100000 µg/mL
solubility ([5]; TBME, organic solvent or mixture, room temperature): ~2000 µg/mL (≈ 4.1 mM)
solubility ([5]; THF, organic solvent or mixture, room temperature): > 130000 µg/mL
solubility ([5]; THF/n-heptane (1/1, v/v), organic solvent or mixture, THF/n-heptane (1/1), room temperature): ~2000 µg/mL (≈ 4.1 mM)
Approximate solubility ([5]; Water, room temperature): S < 1 mg/ml
Solubility in the most common organic solvents (in words) ([5]; acetic acid, ketones, alcohols, esters, dichloromethane and mixtures thereof): highly soluble
solubility ([5]; acetic acid/water (1/3, v/v), aqueous with cosolvent or surfactant or cyclodextrin, Acetic acid/water (1/3), room temperature): > 130000 µg/mL
solubility ([5]; acetone, organic solvent or mixture, room temperature): > 100000 µg/mL
solubility ([5]; acetone/water (1/1, v/v), aqueous with cosolvent or surfactant or cyclodextrin, Acetone/water (1/1), room temperature): > 120000 µg/mL
solubility ([5]; acetonitrile/water (1/1, v/v), aqueous with cosolvent or surfactant or cyclodextrin, Acetonitrile/water (1/1), room temperature): > 110000 µg/mL
solubility ([5]; anisole, organic solvent or mixture, room temperature): > 160000 µg/mL
solubility ([5]; dichloromethane, organic solvent or mixture, room temperature): > 100000 µg/mL
solubility ([5]; ethanol, organic solvent or mixture, room temperature): > 100000 µg/mL
solubility ([5]; ethanol/n-heptane (1/1, v/v), organic solvent or mixture, Ethanol/n-heptane (1/1), room temperature): > 130000 µg/mL
solubility ([5]; ethanol/water (1/1, v/v), aqueous with cosolvent or surfactant or cyclodextrin, Ethanol/water (1/1), room temperature): > 100000 µg/mL
solubility ([5]; ethyl acetate, organic solvent or mixture, room temperature): > 100000 µg/mL
solubility ([5]; methanol, organic solvent or mixture, room temperature): > 100000 µg/mL
solubility ([5]; methanol/TBME (1/2, v/v), organic solvent or mixture, Methanol/TBME (1/2), room temperature): > 140000 µg/mL
solubility ([5]; n-heptane, organic solvent or mixture, room temperature): < 1000 µg/mL

SMILES: CN1CCN(C[C@H]2COc3cc4ncnc(Nc5cccc(Br)c5F)c4cc3O2)CC1 [Form A, (S)—N-(3-bromo-2-fluorophenyl)-7-((4-methylpiperazin-1-yl)methyl)-7,8-dihydro-[1,4]dioxino[2,3-g]quinazolin-4-amine]
Physical form stability [6]: poor physical form stability
PXRD of the dried sample ([6]; dried under vacuum at ambient temperature for about 23 hours): essentially amorphous material
Effect of drying on crystallinity ([6]; drying of highly crystalline, solvent-rich samples): significant loss of crystallinity
Solid form of the sample recovered post-DVS (PXRD) [4]: Form A was retained
Water uptake above 50% r.h. in DVS [4]: just small amounts of water
Water lost below 50% r.h. during the DVS cycles ([4]; below 50% r.h.): about 8%
Water content change over the whole range of relative humidity ([4]; from 0% to 95% r.h., roughly three waters per Compound (I)): ~10%

SMILES: CN1CCN(C[C@H]2COc3cc4ncnc(Nc5cccc(Br)c5F)c4cc3O2)CC1 [Form B, (S)—N-(3-bromo-2-fluorophenyl)-7-((4-methylpiperazin-1-yl)methyl)-7,8-dihydro-[1,4]dioxino[2,3-g]quinazolin-4-amine]
Physical form stability [6]: poor physical form stability
Solid form after further drying ([6]; further drying beyond ten minutes vacuum): completely amorphous material
PXRD of the dried sample ([6]; vacuum drying at ambient temperature for ten minutes): dramatic loss of crystallinity
Solid form of the sample recovered post-DVS (PXRD) [4]: crystallinity was lost
Water uptake above 50% r.h. in DVS [4]: just small amounts of water
Water content of the post-DVS sample by TG-FTIR [4]: about 6.4%
Total water content change during the DVS cycles [4]: about 13%

Continued, values first:

Physical form stability [6]: poor physical form stability
Solid form of the sample recovered post-DVS (PXRD) [4]: crystallinity was lost almost completely
Water uptake above 50% r.h. in DVS [4]: just small amounts of water
Water content at the end of the DVS test [4]: about 5.9%
Water content of the post-DVS sample by TG-FTIR [4]: about 5.9%
Total water content change during the DVS cycles [4]: about 14%
SMILES: CN1CCN(C[C@H]2COc3cc4ncnc(Nc5cccc(Br)c5F)c4cc3O2)CC1 [Form C, (S)—N-(3-bromo-2-fluorophenyl)-7-((4-methylpiperazin-1-yl)methyl)-7,8-dihydro-[1,4]dioxino[2,3-g]quinazolin-4-amine]

solubility at 24 h ([2]; pH 8.49): 66 µg/mL (≈ 0.135 mM)
solubility ([3]; USP phosphate buffer (nominal pH 6.8), aqueous buffer, effective pH 6.97): 210 µg/mL (≈ 0.43 mM)
solubility ([3]; USP phosphate buffer (nominal pH 7.4), aqueous buffer, effective pH 7.47): 84 µg/mL (≈ 0.172 mM)
solubility ([3]; citrate buffer, aqueous buffer, effective pH 5.28): 13100 µg/mL (≈ 26.8 mM)
solubility ([3]; citrate buffer, aqueous buffer, effective pH 6.11): 6600 µg/mL (≈ 13.5 mM)
solubility ([7]; 25 °C, aqueous with cosolvent or surfactant or cyclodextrin, Isopropanol - water 1:1): 20300 µg/mL (≈ 41.6 mM)
solubility ([7]; 25 °C, aqueous with cosolvent or surfactant or cyclodextrin, Isopropanol - water 1:3): 1200 µg/mL (≈ 2.46 mM)
solubility ([7]; 25 °C, organic solvent or mixture, Ethyl acetate - heptane 1:1): 23100 µg/mL (≈ 47.3 mM)
solubility ([7]; ethyl acetate - heptane 1:3, 25 °C, organic solvent or mixture): 6300 µg/mL (≈ 12.9 mM)
Water uptake in DVS ([4]; at 95% relative humidity): up to 0.8%
Water release in DVS ([4]; humidity scanned back to 0% r.h.): lost all its water
solubility ([5]; 1-methoxy-2-propanol, organic solvent or mixture, Propanol, 1-methoxy-2-, room temperature): > 200000 µg/mL
solubility ([5]; 2-propanol/heptane (1/1, v/v), organic solvent or mixture, Propanol, 2-/heptane 1/1, room temperature): > 20000 µg/mL
solubility ([5]; acetone/heptane (1/3, v/v), organic solvent or mixture, Acetone/heptane 1/3, room temperature): ~7000 µg/mL (≈ 14.3 mM)
solubility ([5]; ethanol/n-heptane (1/3, v/v), organic solvent or mixture, Ethanol/n-heptane (1/3), room temperature): > 107000 µg/mL
solubility ([5]; ethyl acetate/n-heptane (1/3, v/v), organic solvent or mixture, Ethyl acetate/n-heptane (1/3), room temperature): ~3000 µg/mL (≈ 6.14 mM)
Solubility compared with the amorphous form (in words) ([5]; in acetonitrile and ethyl acetate): substantially lower
solubility ([5]; isobutyl alcohol, organic solvent or mixture, Isobutylalcohol, room temperature): > 136000 µg/mL
solubility ([5]; isopropyl acetate, organic solvent or mixture, room temperature): 90000 to 180000 µg/mL (≈ 184 to 369 mM)
solubility ([5]; water, room temperature): < 1000 µg/mL
SMILES: CN1CCN(C[C@H]2COc3cc4ncnc(Nc5cccc(Br)c5F)c4cc3O2)CC1 [Form D, (S)—N-(3-bromo-2-fluorophenyl)-7-((4-methylpiperazin-1-yl)methyl)-7,8-dihydro-[1,4]dioxino[2,3-g]quinazolin-4-amine]

Source: US12545686B2, “Polymorphic forms of (s)-n-(3-bromo-2-fluorophenyl)-7-((4-methylpiperazin-1-yl)methyl)-7,8-dihydro-[1,4]dioxino[2,3-g]quinazolin-4-amine as EGFR inhibitors” (ERASCA, INC., priority 2021, dated 2026)
